According to ChEMBL document CHEMBL5604062, “ASAP - ZIKV NS2B-NS3 protease fluorescence dose response” (2024):
Where “and” joins values, the source holds several entries; their conditions need not be identical. Identical values can stand only once.

target: Nonstructural protein 3 (Zika virus, UniProt A0A024AXB9); assay: Functional biochemical assay to identify treatments for viral infectious disease that targets Zika NS2B-NS3 protease. Utilizing a direct enzyme activity measurement method, reading the fluorescence intensity is used to characterize the relative potency of inhibitors as IC50.; parameters: species or system PRVABC59
Sequence (A0A024AXB9 whole entry): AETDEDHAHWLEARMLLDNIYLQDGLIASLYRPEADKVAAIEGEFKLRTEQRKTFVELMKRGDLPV

SMILES	IC50
CC(C)(CNCc1c[nH]c2ccccc12)c1cccnc1	> 99.5 µM
COc1n[nH]cc1CN1CCC(c2nc3ccccc3s2)CC1	> 99.5 µM
c1cc(CN2CCC(c3c[nH]c4ncccc34)CC2)c2[nH]ccc2c1	> 99.5 µM
Cc1cnn(-c2cc(C(=O)O)c(NS(=O)(=O)c3ccc(Oc4ccccc4Cl)cc3)cc2F)c1	10.6 µM
C=CC[C@H]1NCc2cc(N[C@H](C(=O)NC(C)C)c3cccc4[nH]ncc34)ccc21	> 25 µM
Cc1cc(C(F)(F)F)cc(C(=O)Nc2ccc3c(c2)CNC3)n1	> 25 µM
C[C@H]1CC[C@H](CS(=O)(=O)N[C@H](C(=O)Nc2cccc(CN)c2)c2ccc(OCc3ccccc3)cc2)CC1	15.4 µM
O=C1NS(=O)(=O)c2ccc(NC(=O)c3cc(Cl)cc4[nH]ncc34)cc21	> 25 µM
O[C@H]1CCCN(Cc2c[nH]c3ccccc23)C1	> 99.5 µM
NCc1cccc(NC(=O)[C@@H](NC(=O)OCc2ccccc2)c2ccc(Cl)cc2)c1	> 99.5 µM
CCn1cc(-c2cnn(C)n2)nc(N2CC[C@@H](CO)C2)c1=O	> 99.5 µM
c1ccc2sc(C3CCN([C@H]4Cc5[nH]c6ccccc6c5C4)CC3)nc2c1	> 99.5 µM
Cc1cc(C)c([C@@H](NC(=O)OCc2ccccc2)C(=O)Nc2cccc(CN)c2)c(C)c1	> 99.5 µM
CN(Cc1cccnc1)Cc1c[nH]c2ccccc12	> 99.5 µM
C#CCn1ccnc(N2CC[C@H](CO)C2)c1=O	> 99.5 µM
Cc1nc(N2CCOCC2)sc1CC(=O)Nc1cccc(CN)c1	> 99.5 µM
CN(C)[C@@H]1CCC[C@@H](C(=O)Nc2cccc(CN)c2)C1	> 99.5 µM
NCc1cc(/C=C/C(=O)O)cc(NC(=O)c2cc(Cl)cc(NC(=O)OCc3ccccc3)c2)c1	3.17 µM
CCCC[C@H](NC(=O)OC(C)(C)C)C(=O)N[C@H](C(=O)NCc1ccc(C(N)=O)cc1)c1ccc(OCc2ccccc2)cc1	> 99.5 µM
NCc1cccc(NC(=O)c2nn(-c3ccc(Cl)c(F)c3)c3c2CCC3)c1	36.9 µM
O=C(Nc1cc(-c2cccnc2)ccn1)c1nc(Br)n2c1CNCC2	> 25 µM
COc1cc(NC(=O)OCc2ccccc2)cc(C(=O)Nc2cccc(CN)c2)c1OC	> 99.5 µM
COc1ccc(-c2cccc([C@@H](NC(=O)OCc3ccccc3)C(=O)Nc3cccc(CN)c3)c2)cn1	35.3 µM
O=C(Cn1ccc2cccnc21)N1CC[C@H](c2c[nH]c3ccccc23)C1	> 99.5 µM
COc1ccc(CN(C)C)cc1NC(=O)[C@@H](NC(=O)OCc1ccccc1)c1ccc(OCc2ccccc2)cc1	> 99.5 µM
CSc1cc(F)c(C(=O)Nc2cccc(CN)c2)cc1NC(=O)OCc1ccccc1	83.6 µM

SMILES	IC50
O=C(Nc1ccc2c(c1)CNC2)c1cc(Cl)ccc1-n1ccnc1	3.54 µM
C#C[C@H](Nc1cccc(-c2nn[nH]n2)c1)c1cc(Cl)cc(NC(=O)OCc2ccccc2)c1	22.9 µM
Cc1c(CN)cccc1NC(=O)c1cc(Cl)cc(NC(=O)OCc2ccccc2)c1	44.7 µM
Cc1ncc(-c2ccc([C@@H](NC(=O)OCc3ccccc3)C(=O)Nc3cccc(CN)c3)cc2)s1	27.2 µM
NCCc1cccc(NC(=O)c2cc(Cl)cc3[nH]ncc23)c1	0.632 µM
NCc1cccc(NS(=O)(=O)c2cc(Cl)cc(NC(=O)OCc3ccccc3)c2)c1	> 99.5 µM
CCn1cc(-c2cccc(CN(C)C)c2)nc(N2CC[C@@H](CO)C2)c1=O	> 99.5 µM
N#C[C@]1(Nc2ccc3c(c2)CNC3)C(=O)Nc2ccc(Cl)cc21	1.54 µM
CC(C)(C)OC(=O)Cn1ccnc(N2CC[C@@H](CO)C2)c1=O	> 99.5 µM
C[C@H](CC(=O)O)NC(=O)c1cc(Cl)cc(NC(=O)OCc2ccccc2)c1	> 99.5 µM
Cn1nccc1CN1CCC(NS(=O)(=O)c2ccc(Cl)cc2C(=O)O)CC1	> 99.5 µM
NC(=O)c1cc(Cl)ccc1NS(=O)(=O)c1ccc(-c2ccc(F)cc2)cc1	65.6 µM
O=C(NCC1CCCCC1)[C@H]1CCCN1C(=O)Nc1ccc2c(c1)CNC2	> 25 µM
O=C(Nc1cc(-c2cccnc2)ccn1)c1csc(C2CC2)n1	> 25 µM
Nc1noc2cccc(C(=O)Nc3ccc4c(c3)CNC4)c12	0.977 µM
O=C1Cc2c(cccc2C(=O)N[C@H]2C[C@H](OC(F)F)C2)N1	> 25 µM
O=C(Nc1cc(Cl)cc(C(=O)Nc2cccc([C@H]3C[C@H]3C(=O)O)c2)c1)OCc1ccccc1	62.1 µM and 77.7 µM and 77.6 µM
NCc1cccc(NC(=O)[C@H](NC(=O)OCc2ccccc2)C2CCN(S(=O)(=O)c3ccccc3)CC2)c1	> 99.5 µM
O=C1Cc2c(cccc2C(=O)NC[C@H]2CCCN(c3nccs3)C2)N1	> 25 µM
O=C(O)[C@H]1CCCC[C@@H]1NS(=O)(=O)c1ccc(Oc2ccccc2Cl)cc1	> 99.5 µM
COc1ccc(S(=O)(=O)Nc2ccc(C(=O)Nc3nc4ccccc4s3)cc2)cc1	> 99.5 µM
Cc1nc(C2CC2)[nH]c1C(=O)Nc1cc(-c2cccnc2)ccn1	> 25 µM
CNC(=O)c1cc(Cl)ccc1NS(=O)(=O)c1cccc(Oc2ccccc2)c1	> 99.5 µM
CCc1nc2ccc(Cl)cc2n1Cc1ccc2c(c1)CNC2	> 99.5 µM
CC(C)(c1nc2c(C(=O)Nc3ccc4c(c3)CNC4)cc(F)cc2[nH]1)S(C)(=O)=O	0.405 µM and 0.264 µM
CCCC[C@H](NC(C)=O)C(=O)N[C@H](C(=O)NCc1ccc(CN)cc1)c1ccccc1	> 99.5 µM

SMILES	IC50
O=C(Nc1cc(-c2cccnc2)ccn1)c1c[nH]c2ncccc12	> 25 µM
Brc1nc(Br)n(Cc2cscn2)n1	> 99.5 µM
C[C@@H](NC(=O)C1CCN(c2cccc(C(N)=O)n2)CC1)[C@H]1CCCNC1	> 99.5 µM
CC(C)c1occ(C(F)(F)F)c1C(=O)Nc1cccc(CN)c1	> 99.5 µM
N#Cc1cccc(-c2nc3c(C(=O)Nc4ccc5c(c4)CNC5)cc(Cl)cc3[nH]2)c1	0.099 µM and 0.018 µM and 0.048 µM
CNC(=O)[C@H](Nc1cc(CNC(=O)OC(C)(C)C)cc(C(=O)O)c1)c1cc(Cl)cc(C2CC2)c1	> 99.5 µM
Cc1cc(-c2cccc([C@H](NC(=O)OCc3ccccc3)C(=O)Nc3cccc(CN)c3)c2)[nH]n1	> 99.5 µM
NCc1cccc(NC(=O)c2cc(Cl)cc(CNC(=O)OCc3ccccc3)c2)c1	22.1 µM
c1ccc(N2CCN(Cc3c[nH]c4ccccc34)CC2)nc1	> 99.5 µM
CCCN(C)CC(=O)N1CCC([C@@H](NC(=O)OCc2ccccc2)C(=O)Nc2cccc(CN)c2)CC1	> 99.5 µM
O=C(O)c1cc(Cl)c(F)cc1NS(=O)(=O)c1ccc(Oc2ccccc2)cc1	30.3 µM
O=C(NCCCF)[C@H](Nc1ccc2c(c1)CNC2)c1cc(Cl)cc(C2CC2)c1	0.059 µM and 0.033 µM
O=C(O)c1cc(Cl)ccc1S(=O)(=O)NC1CCN(Cc2ccc(F)c(F)c2)CC1	> 99.5 µM
O=C1Cc2c(cc(Br)cc2C(=O)Nc2ccc3c(c2)CNC3)N1	0.021 µM and 0.02 µM
CCn1ccnc(N2CCC(c3c[nH]c4ccccc34)CC2)c1=O	> 99.5 µM
NCc1cccc(NC(=O)c2cc(F)cc(NC(=O)OCc3ccccc3)c2F)c1	74.4 µM
O=S(=O)(Nc1ccc(Cl)cc1CN(CC1CC1)CC1CC1)c1ccc(Oc2ccccc2Cl)cc1	32 µM
COC(=O)c1cc(Cl)ccc1NS(=O)(=O)c1ccc(Cl)nc1	> 99.5 µM
Cc1c(C(=O)Nc2cccc(-c3nnn[nH]3)c2)n[nH]c1-c1ccc(Cl)cc1	> 99.5 µM
Cn1nc(CNc2ccc3c(c2)CNC3)cc1C1CC1	10.9 µM
NCc1cccnc1NS(=O)(=O)c1ccc(Oc2ccccc2Cl)cc1	> 99.5 µM
CC(C)(C)c1nc2c(C(=O)Nc3ccc4c(c3)CNC4)cc(Br)cc2[nH]1	0.328 µM
O=C(Nc1ccc2c(c1)CNC2)c1ccc(OCC(F)(F)F)nc1	22.2 µM
NC1(c2ccccc2NS(=O)(=O)c2ccc(Oc3ccccc3Cl)cc2)CC1	> 99.5 µM
CC(C)(O)c1cncc(NC(=O)c2cccc3c2CC(=O)N3)c1	> 25 µM
Cc1ncsc1C(=O)N[C@H](C(=O)Nc1cccc(CN)c1)c1ccc(OCc2ccccc2)cc1	> 99.5 µM

SMILES	IC50
Cc1c(C(=O)Nc2ccc3c(c2)CS(=O)(=O)C3)cc(C2CC2)n1C	> 25 µM
Cc1c(C(=O)NCc2ccnc(OC3CCOCC3)c2)cc(C2CC2)n1C	> 25 µM
O=C(Nc1cc(Cl)cc(C(=O)N[C@@]23CCCCC[C@@H]2NCC3)c1)OCc1ccccc1	76.1 µM
CCn1c(=O)c(N2CCC[C@H]2c2nncs2)nc2ccccc21	> 99.5 µM
C[C@@H](N)c1ccc(NC(=O)c2cc(Cl)cc3[nH]ncc23)cc1	2.91 µM
O=c1c2ccccc2nnn1CSc1nnc(-c2ccccc2)o1	> 99.5 µM
CCSc1ccc(Cl)cc1C(=O)Nc1ccc2c(c1)CNC2	0.706 µM
c1cc(-c2cc(CN3CCC(c4cscn4)CC3)n[nH]2)ccn1	> 99.5 µM
O=C1Cc2c(cccc2C(=O)N[C@H]2CC[C@H](OC3CCCC3)CC2)N1	> 25 µM
COC(=O)c1cncc(OCc2cc(OC)nc(N3CCNCC3)n2)c1	> 99.5 µM
CCNC(=O)c1ccnc(NC(=O)c2cc(C3CC3)n(C)c2C)c1	> 25 µM
O=C(Nc1cc(Cl)cc(C(=O)Nc2cccc(C3(C(=O)O)CCC3)c2)c1)OCc1ccccc1	69 µM
O=C(Nc1cc(-c2cccnc2)ccn1)c1cc2n(n1)CC(F)(F)C2	> 25 µM
O=C(Nc1ccc2c(c1)CNC2)c1ccc2[nH]ccc2c1	1.67 µM and 2.5 µM
N[C@]12CCC[C@](C(=O)NCc3ccc4c(c3)CCNCC4)(CC1)C2	> 99.5 µM
N=C(N)NCCc1ccc(NC(=O)Cc2ccccc2)cc1	> 198 µM
CC(C)c1cnc(COc2ccc(S(=O)(=O)Nc3ccc(Cl)cc3C(=O)O)cc2)o1	> 99.5 µM
Nc1nccc(C(=O)Nc2ccc3c(c2)CNC3)n1	46.9 µM
NS(=O)(=O)c1cc(Cl)cc(C(=O)Nc2ccc3c(c2)CNC3)c1	1.08 µM
O=c1[nH]c2cccc(N3CCN(Cc4c[nH]c5ccccc45)CC3)c2[nH]1	> 99.5 µM
Cn1c(C(=O)N2CCCc3ccc(C(F)F)cc32)cc2c1CCNC2	> 99.5 µM
O=C(N[C@H]1[C@H]2CCCCC[C@H]2[C@H]1C(=O)Nc1cccc(-n2nn[nH]c2=O)c1)OCc1ccccc1	63 µM
c1ccc2c(CN3CC[C@H](c4c[nH]c5ccccc45)C3)c[nH]c2c1	> 99.5 µM
NCc1cccc(NC(=O)[C@H](NC(=O)Cn2cccn2)c2ccc(OCc3ccccc3)cc2)c1	> 99.5 µM
Cc1c(C(=O)Nc2cc(C(=O)N3CCn4nccc43)ccn2)cc(C2CC2)n1C	> 25 µM
CN(C)CCC(=O)N1CCC([C@@H](NC(=O)OCc2ccccc2)C(=O)Nc2cccc(CN)c2)CC1	> 99.5 µM
